Like-named read-outs stand apart in the source and are kept apart here.
Key:
Format in all cases: cell-based
[1] = molecular target: HER2 (A775_G776insYVMA) expressing Ba/F3 stable cell line (Homo sapiens, UniProt P04626, DUP772-775, cells depend on it); test: Cellular proliferation (Alamar Blue) assay, HER2 (A775_G776insYVMA) Ba/F3; settings: read-out: YVMA IC50
How it was run: (§1)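 Compound exposure lasted 72 h at 37 °C over a final 10–0.0005 μM range in 3-fold steps, with viability read by Alamar Blue after a further 3 h. Ba/F3 mutant lines were plated at 15,000 cells/well in RPMI/10% FBS, A431 at 5000/well in DMEM/10% FBS, 16–18 h beforehand.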

[2] = molecular target: EGFR (A767_dupASV) expressing Ba/F3 stable cell line (Homo sapiens, UniProt P00533, DUP767-769, cells depend on it); test: Cellular proliferation (Alamar Blue) assay, EGFR (A767_dupASV) Ba/F3
How it was run: as §1

[3] = tested on: A431 cells; test: Cellular proliferation (Alamar Blue) assay, A431 cells; settings: Homo sapiens, A-431, 72 h, read-out: A431 IC50
How it was run: as §1

[4] = molecular target: EGFR(D770_N771insSVD) expressing Ba/F3 stable cell line (Homo sapiens, UniProt P00533, DUP768-770, cells depend on it); test: Cellular proliferation (Alamar Blue) assay, EGFR(D770_N771insSVD) Ba/F3
How it was run: as §1

[5] = molecular target: EGFR (H773insNPH) expressing Ba/F3 stable cell line (Homo sapiens, UniProt P00533, DUP771-773, cells depend on it); test: Cellular proliferation (Alamar Blue) assay, EGFR (H773insNPH) Ba/F3
How it was run: as §1

[6] = HER2 (A775_G776insYVMA) Ba/F3 cells, 72 hr, Alamar Blue

Sequence of EGFR (A767_dupASV) expressing Ba/F3 stable cell line (P00533 with tags, fused parts or gaps DUP767-769): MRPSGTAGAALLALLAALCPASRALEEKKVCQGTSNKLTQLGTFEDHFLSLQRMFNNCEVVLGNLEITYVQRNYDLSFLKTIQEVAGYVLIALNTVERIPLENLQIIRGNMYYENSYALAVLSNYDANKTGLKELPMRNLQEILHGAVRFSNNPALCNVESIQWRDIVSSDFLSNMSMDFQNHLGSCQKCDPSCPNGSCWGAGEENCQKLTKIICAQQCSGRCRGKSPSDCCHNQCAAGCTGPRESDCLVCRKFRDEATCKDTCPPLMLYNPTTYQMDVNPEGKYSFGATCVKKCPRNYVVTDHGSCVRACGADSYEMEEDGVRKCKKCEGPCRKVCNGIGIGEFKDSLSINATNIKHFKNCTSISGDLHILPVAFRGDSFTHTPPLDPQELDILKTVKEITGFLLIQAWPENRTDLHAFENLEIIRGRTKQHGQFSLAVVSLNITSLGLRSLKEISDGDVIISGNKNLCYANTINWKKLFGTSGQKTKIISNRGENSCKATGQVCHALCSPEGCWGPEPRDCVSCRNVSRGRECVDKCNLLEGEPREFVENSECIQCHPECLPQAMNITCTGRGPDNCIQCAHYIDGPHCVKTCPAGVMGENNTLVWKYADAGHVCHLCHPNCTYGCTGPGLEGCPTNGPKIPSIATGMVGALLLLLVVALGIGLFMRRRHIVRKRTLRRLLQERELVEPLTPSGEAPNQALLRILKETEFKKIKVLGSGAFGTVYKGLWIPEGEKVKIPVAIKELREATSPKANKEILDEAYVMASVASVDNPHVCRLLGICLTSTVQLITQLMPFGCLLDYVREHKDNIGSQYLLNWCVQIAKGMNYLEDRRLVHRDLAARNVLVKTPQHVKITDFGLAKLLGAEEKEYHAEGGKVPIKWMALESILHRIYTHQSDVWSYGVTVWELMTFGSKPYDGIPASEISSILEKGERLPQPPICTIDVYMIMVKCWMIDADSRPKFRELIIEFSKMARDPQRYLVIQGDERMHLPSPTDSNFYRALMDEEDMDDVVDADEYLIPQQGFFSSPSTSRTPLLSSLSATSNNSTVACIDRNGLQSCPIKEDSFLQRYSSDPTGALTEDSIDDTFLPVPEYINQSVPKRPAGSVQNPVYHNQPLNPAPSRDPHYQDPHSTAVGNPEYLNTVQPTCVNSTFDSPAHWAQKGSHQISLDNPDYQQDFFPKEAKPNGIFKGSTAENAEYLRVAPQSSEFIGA
Sequence of EGFR (H773insNPH) expressing Ba/F3 stable cell line (P00533 with tags, fused parts or gaps DUP771-773): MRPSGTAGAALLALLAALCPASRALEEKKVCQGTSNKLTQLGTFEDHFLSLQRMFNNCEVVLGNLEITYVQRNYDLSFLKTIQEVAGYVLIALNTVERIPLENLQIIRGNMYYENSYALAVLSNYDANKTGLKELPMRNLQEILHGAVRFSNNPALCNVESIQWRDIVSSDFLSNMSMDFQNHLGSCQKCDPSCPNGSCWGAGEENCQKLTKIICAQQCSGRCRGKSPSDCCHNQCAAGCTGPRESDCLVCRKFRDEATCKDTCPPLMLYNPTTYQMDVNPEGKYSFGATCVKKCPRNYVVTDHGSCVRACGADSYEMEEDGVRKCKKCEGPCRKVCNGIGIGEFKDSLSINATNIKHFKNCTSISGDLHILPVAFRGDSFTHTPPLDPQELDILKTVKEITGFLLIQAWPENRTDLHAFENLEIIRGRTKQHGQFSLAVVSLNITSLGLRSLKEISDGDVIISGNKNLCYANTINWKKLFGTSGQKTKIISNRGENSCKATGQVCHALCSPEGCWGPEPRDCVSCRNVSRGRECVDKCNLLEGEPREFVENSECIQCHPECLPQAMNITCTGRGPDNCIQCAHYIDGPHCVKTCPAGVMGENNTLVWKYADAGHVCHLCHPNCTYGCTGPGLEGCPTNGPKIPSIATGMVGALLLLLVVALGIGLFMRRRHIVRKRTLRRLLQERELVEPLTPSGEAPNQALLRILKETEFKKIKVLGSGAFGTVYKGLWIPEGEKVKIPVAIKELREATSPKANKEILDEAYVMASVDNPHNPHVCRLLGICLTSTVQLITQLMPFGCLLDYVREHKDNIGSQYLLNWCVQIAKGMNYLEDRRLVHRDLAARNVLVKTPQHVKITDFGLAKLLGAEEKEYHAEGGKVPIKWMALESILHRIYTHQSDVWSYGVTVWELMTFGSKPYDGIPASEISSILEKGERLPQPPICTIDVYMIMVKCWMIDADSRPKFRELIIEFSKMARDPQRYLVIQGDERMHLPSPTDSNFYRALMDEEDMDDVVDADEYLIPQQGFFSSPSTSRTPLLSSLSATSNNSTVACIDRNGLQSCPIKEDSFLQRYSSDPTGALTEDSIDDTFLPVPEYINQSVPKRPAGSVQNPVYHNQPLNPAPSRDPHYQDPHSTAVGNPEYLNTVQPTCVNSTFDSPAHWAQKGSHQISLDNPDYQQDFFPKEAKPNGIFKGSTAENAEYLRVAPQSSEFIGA
Sequence of EGFR(D770_N771insSVD) expressing Ba/F3 stable cell line (P00533 with tags, fused parts or gaps DUP768-770): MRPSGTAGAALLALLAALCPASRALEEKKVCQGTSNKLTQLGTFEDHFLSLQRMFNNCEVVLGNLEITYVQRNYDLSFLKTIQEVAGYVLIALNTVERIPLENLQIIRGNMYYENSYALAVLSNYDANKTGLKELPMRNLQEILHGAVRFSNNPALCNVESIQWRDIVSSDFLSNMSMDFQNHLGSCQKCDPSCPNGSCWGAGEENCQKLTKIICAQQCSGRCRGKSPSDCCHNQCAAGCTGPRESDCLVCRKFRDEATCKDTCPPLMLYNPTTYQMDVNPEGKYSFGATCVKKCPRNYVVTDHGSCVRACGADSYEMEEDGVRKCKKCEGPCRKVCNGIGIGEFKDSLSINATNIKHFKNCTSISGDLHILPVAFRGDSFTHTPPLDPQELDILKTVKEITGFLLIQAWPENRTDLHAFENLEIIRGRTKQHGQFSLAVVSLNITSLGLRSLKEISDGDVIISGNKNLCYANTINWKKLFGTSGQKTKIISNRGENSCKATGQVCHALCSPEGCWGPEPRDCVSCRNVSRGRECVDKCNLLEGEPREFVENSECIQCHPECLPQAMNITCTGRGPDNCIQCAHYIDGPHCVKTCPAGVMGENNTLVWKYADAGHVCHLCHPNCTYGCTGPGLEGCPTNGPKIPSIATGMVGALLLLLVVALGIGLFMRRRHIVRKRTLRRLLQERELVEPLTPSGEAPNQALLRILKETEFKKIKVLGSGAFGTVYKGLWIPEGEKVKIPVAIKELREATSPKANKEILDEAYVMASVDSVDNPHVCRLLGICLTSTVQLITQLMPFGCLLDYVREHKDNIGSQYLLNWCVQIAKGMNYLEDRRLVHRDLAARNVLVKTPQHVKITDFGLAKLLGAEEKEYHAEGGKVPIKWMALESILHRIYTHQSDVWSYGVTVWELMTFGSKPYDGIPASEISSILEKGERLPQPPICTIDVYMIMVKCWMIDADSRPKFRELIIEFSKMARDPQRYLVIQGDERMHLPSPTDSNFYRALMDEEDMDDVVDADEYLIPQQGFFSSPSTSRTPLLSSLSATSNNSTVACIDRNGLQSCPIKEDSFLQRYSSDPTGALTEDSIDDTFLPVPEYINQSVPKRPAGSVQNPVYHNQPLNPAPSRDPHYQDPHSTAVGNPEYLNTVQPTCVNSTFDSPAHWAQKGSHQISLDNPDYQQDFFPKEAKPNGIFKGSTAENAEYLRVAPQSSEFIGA
Sequence of HER2 (A775_G776insYVMA) expressing Ba/F3 stable cell line (P04626 with tags, fused parts or gaps DUP772-775): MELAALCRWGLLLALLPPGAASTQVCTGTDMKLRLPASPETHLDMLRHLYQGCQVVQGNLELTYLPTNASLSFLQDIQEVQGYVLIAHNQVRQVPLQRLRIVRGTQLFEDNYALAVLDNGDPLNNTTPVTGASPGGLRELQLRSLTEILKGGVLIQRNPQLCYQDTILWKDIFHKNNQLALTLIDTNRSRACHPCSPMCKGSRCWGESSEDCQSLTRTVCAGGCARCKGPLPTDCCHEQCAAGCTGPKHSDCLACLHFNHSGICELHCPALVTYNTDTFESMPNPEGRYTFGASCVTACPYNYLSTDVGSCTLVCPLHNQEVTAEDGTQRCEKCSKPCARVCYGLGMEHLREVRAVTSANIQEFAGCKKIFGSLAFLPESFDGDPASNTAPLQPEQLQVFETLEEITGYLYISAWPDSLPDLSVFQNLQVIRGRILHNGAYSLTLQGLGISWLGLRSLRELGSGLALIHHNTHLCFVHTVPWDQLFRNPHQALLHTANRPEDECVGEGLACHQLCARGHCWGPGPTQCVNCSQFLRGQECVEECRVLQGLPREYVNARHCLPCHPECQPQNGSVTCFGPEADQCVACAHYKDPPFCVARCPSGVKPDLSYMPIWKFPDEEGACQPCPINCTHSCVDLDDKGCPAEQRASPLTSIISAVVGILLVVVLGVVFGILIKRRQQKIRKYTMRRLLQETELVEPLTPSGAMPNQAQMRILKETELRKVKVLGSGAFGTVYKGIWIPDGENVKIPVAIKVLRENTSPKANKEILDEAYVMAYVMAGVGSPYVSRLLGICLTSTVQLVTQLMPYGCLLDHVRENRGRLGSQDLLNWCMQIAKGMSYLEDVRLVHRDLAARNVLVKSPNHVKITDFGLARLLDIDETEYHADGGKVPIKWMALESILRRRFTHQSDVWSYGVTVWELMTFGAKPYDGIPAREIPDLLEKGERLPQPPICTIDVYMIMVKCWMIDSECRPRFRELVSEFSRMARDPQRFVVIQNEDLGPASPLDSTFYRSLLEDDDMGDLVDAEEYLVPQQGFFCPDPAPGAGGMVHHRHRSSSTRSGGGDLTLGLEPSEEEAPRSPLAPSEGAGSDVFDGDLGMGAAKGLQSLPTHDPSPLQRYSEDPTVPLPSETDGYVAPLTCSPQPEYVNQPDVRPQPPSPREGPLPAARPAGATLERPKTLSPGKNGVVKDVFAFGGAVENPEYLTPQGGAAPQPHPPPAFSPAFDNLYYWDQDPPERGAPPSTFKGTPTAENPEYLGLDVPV

SMILES | GI50 [1, 6] [nM] | GI50 ([2]; 72 hr, read-out: A767 IC50) [nM] | IC50 ([3]; A431 cells, 72 hr, Alamar Blue) [nM] | GI50 ([4]; 72 hr, read-out: D770 IC50) [nM] | GI50 ([5]; 72 hr, read-out: NPH IC50) [nM] | GI50 ([1]; her2 (a775_g776insyvma) expressing ba/f3 stable cell line) [nM] | GI50 ([2]; read-out: A767 IC50, 72 hr) [nM] | IC50 [3] [nM] | GI50 ([4]; read-out: D770 IC50, 72 hr) [nM] | GI50 ([5]; read-out: NPH IC50, 72 hr) [nM]
C=CC(=O)Nc1ccc(F)c(Nc2nc(Nc3cnn(C)c3)ncc2-c2ccc(Cl)c(Cl)c2)c1 [Compound 50, N-(3-((5-(3,4-dichlorophenyl)-2-((1-methyl-1H-pyrazol-4-yl)amino)pyrimidin-4-yl)amino)-4-fluorophenyl)acrylamide] | 86 | 26 | 70 | 32 | 61 |  |  |  |  | 
C=CC(=O)Nc1ccc(F)c(Nc2nc(Nc3cnn(C4COC4)c3)ncc2-c2ccc(F)c(Cl)c2)c1 [Compound 53, N-(3-((5-(3-chloro-4-fluorophenyl)-2-((1-(oxetan-3-yl)-1H-pyrazol-4-yl)amino)pyrimidin-4-yl)amino)-4-fluorophenyl)acrylamide] | 211 | 119 | 1220 | 104 | 153 |  |  |  |  | 
C=CC(=O)Nc1ccc(F)c(Nc2nc(Nc3cnn(C4COC4)c3)ncc2-c2ccc(Cl)c(Cl)c2)c1 [Compound 56, N-(3-((5-(3,4-dichlorophenyl)-2-((1-(oxetan-3-yl)-1H-pyrazol-4-yl)amino)pyrimidin-4-yl)amino)-4-fluorophenyl)acrylamide] | 118 | 95 | 587 | 104 | 84 |  |  |  |  | 
C=CC(=O)Nc1ccc(F)c(Nc2nc(Nc3cnn(CCN(C)C)c3)ncc2-c2ccc(F)c(Cl)c2)c1 [Compound 57, N-(3-((5-(3-chloro-4-fluorophenyl)-2-((1-(2-(dimethylamino)ethyl)-1H-pyrazol-4-yl)amino)pyrimidin-4-yl)amino)-4-fluorophenyl)acrylamide] |  |  |  |  |  | 112 | 207 | 699 | 111 | 62
C=CC(=O)Nc1ccc(F)c(Nc2nc(Nc3cnn(CCN(C)C)c3)ncc2-c2ccc(Cl)c(Cl)c2)c1 [Compound 58, N-(3-((5-(3,4-dichlorophenyl)-2-((1-(2-(dimethylamino)ethyl)-1H-pyrazol-4-yl)amino)pyrimidin-4-yl)amino)-4-fluorophenyl)acrylamide] | 100 | 257 | 85 | 130 | 214 |  |  |  |  | 
C=CC(=O)Nc1ccc(F)c(Nc2nc(Nc3cnn(C)c3)ncc2-c2cc(C)cc(F)c2)c1 [Compound 64, N-(4-fluoro-3-((5-(3-fluoro-5-methylphenyl)-2-((1-methyl-1H-pyrazol-4-yl)amino)pyrimidin-4-yl)amino)phenyl)acrylamide] | 159 | 104 | 554 | 61 | 95 |  |  |  |  | 
C=CC(=O)Nc1cccc(Nc2nc(Nc3cnn(C)c3)ncc2-c2cc(F)cc(Cl)c2)c1 [Compound 66, N-(3-((5-(3-chloro-5-fluorophenyl)-2-((1-methyl-1H-pyrazol-4-yl)amino)pyrimidin-4-yl)amino)phenyl)acrylamide] | 47 | 26 | 55 | 15 | 14 |  |  |  |  | 
C=CC(=O)Nc1ccc(F)c(Nc2nc(Nc3cnn(C)c3)ncc2-c2ccc(N3CCOCC3)c(F)c2)c1 [Compound 76, N-[4-fluoro-3-({5-[3-fluoro-4-(morpholin-4-yl)phenyl]-2-[(1-methyl-1H-pyrazol-4-yl)amino]pyrimidin-4-yl}amino)phenyl]prop-2-enamide] | 240 | 72 | 1260 | 220 | 236 |  |  |  |  | 
C=CC(=O)Nc1ccc(F)c(Nc2nc(Nc3cnn(CCN(C)C)c3)ncc2-c2ccc(Br)c(Cl)c2)c1 [Compound 89, N-(3-((5-(4-bromo-3-chlorophenyl)-2-((1-(2-(dimethylamino)ethyl)-1H-pyrazol-4-yl)amino)pyrimidin-4-yl)amino)-4-fluorophenyl)acrylamide] | 123 | 108 | 343 | 102 | 56 |  |  |  |  | 

Second part, led by results:

GI50 [1, 6] [nM] | GI50 ([2]; 72 hr, read-out: A767 IC50) [nM] | IC50 ([3]; A431 cells, 72 hr, Alamar Blue) [nM] | GI50 ([4]; 72 hr, read-out: D770 IC50) [nM] | GI50 ([5]; 72 hr, read-out: NPH IC50) [nM] | SMILES | GI50 ([1]; her2 (a775_g776insyvma) expressing ba/f3 stable cell line) [nM] | GI50 ([2]; read-out: A767 IC50, 72 hr) [nM] | IC50 [3] [nM] | GI50 ([4]; read-out: D770 IC50, 72 hr) [nM] | GI50 ([5]; read-out: NPH IC50, 72 hr) [nM]
34 | 29 | 102 | 17 | 30 | C=CC(=O)Nc1ccc(F)c(Nc2nc(Nc3cnn(C)c3)ncc2-c2cnc(C)c(Cl)c2)c1 [Compound 46, N-(3-((5-(5-chloro-6-methylpyridin-3-yl)-2-((1-methyl-1H-pyrazol-4-yl)amino)pyrimidin-4-yl)amino)-4-fluorophenyl)acrylamide] |  |  |  |  | 
25 | 34 | 46 | 21 | 20 | C=CC(=O)Nc1ccc(F)c(Nc2nc(Nc3cnn(C)c3)ncc2-c2cnc(F)c(C(F)(F)F)c2)c1 [Compound 47, N-(4-fluoro-3-((5-(6-fluoro-5-(trifluoromethyl)pyridin-3-yl)-2-((1-methyl-1H-pyrazol-4-yl)amino)pyrimidin-4-yl)amino)phenyl)acrylamide] |  |  |  |  | 
65 | 44 | 246 | 38 | 27 | C=CC(=O)Nc1cccc(Nc2nc(Nc3cnn(C)c3)ncc2-c2ccc(F)c(Cl)c2)c1 [Compound 49, N-(3-((5-(3-chloro-4-fluorophenyl)-2-((1-methyl-1H-pyrazol-4-yl)amino)pyrimidin-4-yl)amino)phenyl)acrylamide] |  |  |  |  | 
952 | 150 | 1180 | 170 | 462 | C=CC(=O)Nc1ccc(F)c(Nc2nc(Nc3cnn(C)c3)ncc2-c2ccc(CN(C)C)c(F)c2)c1 [Compound 60, N-(3-((5-(4-((dimethylamino)methyl)-3-fluorophenyl)-2-((1-methyl-1H-pyrazol-4-yl)amino)pyrimidin-4-yl)amino)-4-fluorophenyl)acrylamide] |  |  |  |  | 
103 | 80 | 1000 | 75 | 91 | C=CC(=O)Nc1ccc(F)c(Nc2nc(Nc3cnn(CCO)c3)ncc2-c2ccc(F)c(Cl)c2)c1 [Compound 62, N-(3-((5-(3-chloro-4-fluorophenyl)-2-((1-(2-hydroxyethyl)-1H-pyrazol-4-yl)amino)pyrimidin-4-yl)amino)-4-fluorophenyl)acrylamide] |  |  |  |  | 
112 | 226 | 1070 | 114 | 304 | C=CC(=O)Nc1ccc(F)c(Nc2nc(Nc3cnn(C)c3)ncc2-c2cc(F)cc(OC)c2)c1 [Compound 65, N-(4-fluoro-3-{[5-(3-fluoro-5-methoxyphenyl)-2-[(1-methyl-1H-pyrazol-4-yl)amino]pyrimidin-4-yl]amino}phenyl)prop-2-enamide] |  |  |  |  | 
60 | 41 | 213 | 36 | 100 | C=CC(=O)Nc1cccc(Nc2nc(Nc3cnn(C)c3)ncc2-c2ccc(F)c(F)c2)c1 [Compound 67, N-(3-((5-(3,4-difluorophenyl)-2-((1-methyl-1H-pyrazol-4-yl)amino)pyrimidin-4-yl)amino)phenyl)acrylamide] |  |  |  |  | 
584 | 113 | 297 | 340 | 353 | C=CC(=O)Nc1ccc(F)c(Nc2nc(Nc3cnn(C)c3)ncc2-c2ccc(N3CCCC3)c(F)c2)c1 [Compound 77, N-(4-fluoro-3-((5-(3-fluoro-4-(pyrrolidin-1-yl)phenyl)-2-((1-methyl-1H-pyrazol-4-yl)amino)pyrimidin-4-yl)amino)phenyl)acrylamide] |  |  |  |  | 
286 | 59 | 102 | 111 | 144 | C=CC(=O)Nc1ccc(F)c(Nc2nc(Nc3cnn(C)c3)ncc2-c2ccc(N3CCCCC3)c(F)c2)c1 [Compound 78, N-(4-fluoro-3-((5-(3-fluoro-4-(piperidin-1-yl)phenyl)-2-((1-methyl-1H-pyrazol-4-yl)amino)pyrimidin-4-yl)amino)phenyl)acrylamide] |  |  |  |  | 
118 | 87 | 280 | 66 | 57 | C=CC(=O)Nc1ccc(F)c(Nc2nc(Nc3cnn(C)c3)ncc2-c2ccc(Br)c(Cl)c2)c1 [Compound 88, N-(3-((5-(4-bromo-3-chlorophenyl)-2-((1-methyl-1H-pyrazol-4-yl)amino)pyrimidin-4-yl)amino)-4-fluorophenyl)acrylamide] |  |  |  |  | 
164 | 122 | 185 | 100 | 156 | C=CC(=O)Nc1ccc(F)c(Nc2nc(Nc3cnn(C)c3)ncc2-c2ccc(Cl)c(Br)c2)c1 [Compound 90, N-(3-((5-(3-bromo-4-chlorophenyl)-2-((1-methyl-1H-pyrazol-4-yl)amino)pyrimidin-4-yl)amino)-4-fluorophenyl)acrylamide] |  |  |  |  | 
113 | 102 | 45 | 74 | 54 | C=CC(=O)Nc1ccc(F)c(Nc2nc(Nc3cn(C)nc3Cl)ncc2-c2ccc(Br)c(F)c2)c1 [Compound 92, N-(3-((5-(4-bromo-3-fluorophenyl)-2-((3-chloro-1-methyl-1H-pyrazol-4-yl)amino)pyrimidin-4-yl)amino)-4-fluorophenyl)acrylamide] |  |  |  |  | 

Source: patent US20230416232A1, “PYRIMIDINE COMPOUNDS, COMPOSITIONS, AND MEDICINAL APPLICATIONS THEREOF” (Blueprint Medicines Corporation, priority 2020, published 2023)
